From US8501737B2, “Piperazinyl-, piperidinyl- and morpholinyl-derivatives as novel inhibitors of histone deacetylase” (Janssen Pharmaceutica N.V., priority 2002, dated 2013)
Converted amounts (≈) assume the structure as drawn. Like-named read-outs stand apart in the source and are kept apart here.

Tests used:
[1] = target: histone deacetylase (HeLa nuclear extracts); assay: In vitro assay for inhibition of histone deacetylase (HeLa nuclear extracts, radiolabeled histone H4 peptide substrate); assay type: biochemical; settings: HeLa nuclear extracts 60 μg/ml, 30 min, pH 7.4
Protocol: The in vitro assay for inhibition of histone deacetylase (see example C.1) measures the inhibition of HDAC enzymatic activity obtained with the compounds of formula (I).
HeLa nuclear extracts (supplier: Biomol) were incubated at 60 μg/ml with 2×10^−8 M of radiolabeled peptide substrate. As a substrate for measuring HDAC activity a synthetic peptide, i.e. the amino acids 14-21 of histone H4, was used. The substrate is biotinylated at the NH2-terminal part with a 6-aminohexanoic acid spacer, and is protected at the COOH-terminal part by an amide group and specifically [^3H]-acetylated at lysine 16. The substrate, biotin-(6-aminohexanoic)Gly-Ala-([^3H]-acetyl-Lys-Arg-His-Arg-Lys-Val-NH2), was added in a buffer containing 25 mM Hepes, 1 M sucrose, 0.11 mg/ml BSA and 0.01% Triton X-100 at pH 7.4. After 30 min the deacetylation reaction was terminated by the addition of HCl and acetic acid. (final concentration 0.035 mM and 3.8 mM respectively). After stopping the reaction, the free ^3H-acetate was extracted with ethylacetate. After mixing and centrifugation, the radioactivity in an aliquot of the upper (organic) phase was counted in a β-counter.
For each experiment, controls (containing HeLa nuclear extract and DMSO without compound), a blank incubation (containing DMSO but no HeLa nuclear extract or compound) and samples (containing compound dissolved in DMSO and HeLa nuclear extract) were run in parallel. In first instance, compounds were tested at a concentration of 10^−5M. […] In each test the blank value was subtracted from both the control and the sample values. The control sample represented 100% of substrate deactylation. For each sample the radioactivity was expressed as a percentage of the mean value of the controls. […] Herein the effects of test compounds are expressed as pIC50 (the negative log value of the IC50-value).

[2] = system: human A2780 ovarian carcinoma cells; assay: Antiproliferative activity on A2780 cells (MTT-based assay); assay type: cell-based; settings: four days of incubation; for IC50: Homo sapiens, A2780, 96 h, read-out: Cellular activity pIC50 (converted)
Protocol: Cellular activity of the compounds of formula (I) was determined on A2780 tumour cells using a […] assay for cell toxicity or survival (Mosmann Tim, Journal of Immunological Methods 65: 55-63, 1983)(see example C.2).
All compounds tested were dissolved in DMSO and further dilutions were made in culture medium. Final DMSO concentrations never exceeded 0.1% (v/v) in cell proliferation assays, Controls contained A2780 cells and DMSO without compound and blanks contained DMSO but no cells. MTT was dissolved at 5 mg/ml in PBS. A glycine buffer comprised of 0.1 M glycine and 0.1 M NaCl buffered to pH 10.5 with NaOH (1 N) was prepared (all reagents were from Merck).
The human A2780 ovarian carcinoma cells (a kind gift from Dr. T. C. Hamilton [Fox Chase Cancer Centre, Pennsylvania, USA]) were cultured in RPMI 1640 medium supplemented with 2 mM L-glutamine, 50 μg/ml gentamicin and 10% fetal calf serum. Cells were routinely kept as monolayer cultures at 37° C. in a humidified 5% CO2 atmosphere. Cells were passaged once a week using a trypsin/EDTA solution at a split ratio of 1:40. All media and supplements were obtained from Life Technologies. Cells were free of mycoplasma contamination as determined using the Gen-Probe Mycoplasma Tissue Culture kit (supplier: BioMérieux).
Cells were seeded in NUNC™ 96-well culture plates (Supplier: Life Technologies) and allowed to adhere to the plastic overnight. Densities used for plating were 1500 cells per well in a total volume of 200 μl medium. After cell adhesion to the plates, medium was changed and drugs and/or solvents were added to a final volume of 200 μl. Following four days of incubation, medium was replaced by 200 μl fresh medium and cell density and viability was assessed using an MTT-based assay. To each well, 25 μl MTT solution was added and the cells were further incubated for 2 hours at 37° C. The medium was then carefully aspirated and the blue MTT-formazan product was solubilized by addition of 25 μl glycine buffer followed by 100 μl of DMSO. […] Within an experiment, the results for each experimental condition are the mean of 3 replicate wells. For initial screening purposes, compounds were tested at a single fixed concentration of 10^−6 M. For active compounds, the experiments were repeated to establish full concentration-response curves. For each experiment, controls (containing no drug) and a blank incubation (containing no cells or drugs) were run in parallel. The blank value was subtracted from all control and sample values. For each sample, the mean value for cell growth (in absorbance units) was expressed as a percentage of the mean value for cell growth of the control. […] Herein the effects of test compounds are expressed as pIC50 (the negative log value of the IC50-value).

[3] = Kinetic solubility in aqueous media (nephelometer turbidity); assay type: physicochemical; settings: aqueous buffer, kinetic from dmso stock; phosphate citrate buffer pH 7.4, dilution from 5 mM DMSO stock; read-out: Solubility Score
Protocol: Kinetic solubility in aqueous media measures the ability of a compound to stay in aqueous solution upon dilution (see example C.3).
DMSO-stock solutions are diluted with a single aqueous buffer solvent in 3 consecutive steps. For every dilution turbidity is measured with a nephelometer.
In the first dilution step, 10 μl of a concentrated stock-solution of the active compound, solubilized in DMSO (5 mM), was added to 100 μl phosphate citrate buffer pH 7.4 and mixed. In the second dilution step, an aliquot (20 μl) of the first dilution step was further dispensed in 100 μl phosphate citrate buffer pH 7.4 and mixed. Finally, in the third dilution step, a sample (20 μl) of the second dilution step was further diluted in 100 μl phosphate citrate buffer pH 7.4 and mixed. All dilutions were performed in 96-well plates. Immediately after the last dilution step the turbidity of the three consecutive dilution steps were measured with a nephelometer. Dilution was done in triplicate for each compound to exclude occasional errors. Based on the turbidity measurements a ranking is performed into 3 classes. Compounds with high solubility obtained a score of 3 and for this compounds the first dilution is clear. Compounds with medium solubility obtained a score of 2. For these compounds the first dilution is unclear and the second dilution is clear. […] The solubility of 11 compounds was measured.

[4] = not given; remark: listed apart in the source

Compound | % metabolism (human, 15 min, 5 μM) | Enzyme activity pIC50 [1] | IC50 [2] | solubility [3] | melting point [4] | Cellular activity pIC50 [2] | % metabolism (after 15 min incubation with microsomes (1 mg/ml), compound 5 μM, 37 degrees Celsius)
COc1cc(N)c(Cl)cc1C(=O)NC1CCN(CCCOc2ccc(F)cc2)CC1OC (centres unmarked) [Cisapride] | 45% |  |  |  |  |  | 
O=C(NO)c1cnc(N2CCOC(CNC(=O)c3ccc4ccccc4c3)C2)nc1 (centres unmarked) [Compound 9] |  | 7.609 | > 10000 nM | > 454 µM | 246 °C |  | 
O=C(NO)c1cnc(N2CCNC(CNS(=O)(=O)c3ccc4ccccc4c3)C2)nc1 (centres unmarked) [Compound 2] |  | 8.059 | 2040 nM | < 75.8 µM | 243 °C |  | 
O=C(NO)c1cnc(N2CCCC(NS(=O)(=O)c3ccc4ccccc4c3)C2)nc1 (centres unmarked) [Compound 14] |  |  | 243 nM |  |  |  | 
CCCO [propanol] |  |  |  |  |  |  | 25%
O=C(NO)c1cnc(N2CCN(Cc3ccccc3)C(CNS(=O)(=O)c3ccc4ccccc4c3)C2)nc1 (centres unmarked) [Compound 3] |  | 7.647 | 2400 nM | < 75.8 µM | 135 °C |  | 
CN1CCN(c2ncc(C(=O)NO)cn2)CC1CNS(=O)(=O)c1ccc2ccccc2c1 (centres unmarked) [Compound 13] |  | 7.361 | 1690 nM |  |  |  | 

The next lines start with results.

% metabolism (human, 15 min, 5 μM) | Enzyme activity pIC50 [1] | IC50 [2] | solubility [3] | melting point [4] | Cellular activity pIC50 [2] | Compound | % metabolism (after 15 min incubation with microsomes (1 mg/ml), compound 5 μM, 37 degrees Celsius)
 | 7.487 | 36.5 nM | > 454 µM | 290 °C |  | O=C(NO)c1cnc(N2CCOC(CNC(=O)c3ccc(-c4ccccc4)cc3)C2)nc1 (centres unmarked) [Compound 8] | 
 | 8.097 | 565 nM | < 75.8 µM | 163 °C |  | O=C(NO)c1cnc(N2CCOC(CNS(=O)(=O)c3ccc(-c4ccccc4)cc3)C2)nc1 (centres unmarked) [Compound 4] | 
 | 7.421 | 413 nM | > 454 µM | 179 °C |  | O=C(NO)c1cnc(N2CCOC(CNS(=O)(=O)c3ccc4ccccc4c3)C2)nc1 (centres unmarked) [Compound 6] | 
 | 7.528 | 977 nM | 75.8 to 454 µM (≈ 35.6 to 213 µg/mL) |  |  | O=C(NO)c1cnc(N2CCO[C@H](CNS(=O)(=O)c3ccc(-c4ccccc4)cc3)C2)nc1 [Compound 12] | 
 | 7.323 | 2040 nM | > 454 µM | 157 °C |  | O=C(NO)c1ccc(N2CCOC(CNS(=O)(=O)c3ccc4ccccc4c3)C2)nc1 (centres unmarked) [Compound 7] | 
 | 7.553 | > 10000 nM | > 454 µM | 176 °C |  | O=C(NO)c1cnc(N2CC[C@H](O)[C@H](CNS(=O)(=O)c3ccc4ccccc4c3)C2)nc1 [Compound 11] | 
 | 7.549 | 2050 nM |  | 210 °C |  | O=C(NO)c1ccc(N2CCOC(CNS(=O)(=O)c3ccc(-c4ccccc4)cc3)C2)nc1 (centres unmarked) [Compound 5] | 
 | 7.723 |  |  | 164 °C | 6.232 | O=C(NO)c1cnc(N2CCO[C@H](CNS(=O)(=O)c3ccc(-c4ccccc4)cc3)C2)nc1 [Compound 1] | 
 | 7.65 | 1080 nM | > 454 µM | 210 °C |  | O=C(NO)c1cnc(N2CCCC(CNS(=O)(=O)c3ccc4ccccc4c3)C2)nc1 (centres unmarked) [Compound 10] | 
